Results taken from patent publication US7250430B2, “Thiophene-and thiazolesulfonamides as antineoplastic agents” (Eli Lilly and Company, priority 2006, dated 2007).

What follows are compounds tested on Human Colon Carcinoma HT-29 (assay: Human Tumor Xenograft Assay, tumor growth delay). Settings: Experiment A, 30 mg/kg IV, 5 consecutive days, 2 days rest.
Format: in vivo, mouse
Excerpt: Inhibition of tumors transplanted into mice is an accepted procedure for studying the efficacy of antitumor agents (Corbett, et al., In vivo Methods for Screening and Preclinical Testing; Use of rodent solid tumors for drug discovery., In: Anticancer Drug Development Guide: Preclinical Screening, Clinical Trials, and Approval, B. Teicher (ed), Humana Press Inc., Totowa, N.J., Chapter 5, pages 75-99 (1997); (Corbett, et al., Int. J. Pharmacog., 33, Supplement, 102-122 (1995)). Murine tumors or human xenografts were implanted essentially as described by Corbett in In vivo Methods for Screening and Preclinical Testing; Use of rodent solid tumors for drug discovery. Briefly, the murine tumor or human xenograft was implanted subcutaneously using either 12-gauge trocar implants or counted number of cells. The location for the trocar insertion is midway between the axillary and inguinal region along the side of the mouse. The trocar is slipped approximately ¾ of an inch subcutaneously up toward the axilla before discharging the tumor fragment, and pinching the skin as the trocar is removed. Alternatively, human tumor cells prepared from cell culture (1×10^7 cells) mixed with an equal volume of Matrigel (Becton-Dickinson) were implanted subcutaneously in a hind-leg of a male or female nude mouse (Charles River). A test compound in vehicle or vehicle alone was administered by intravenous bolus injection (iv), intraperitoneal injection (ip), or oral gavage (po). Each treatment group, as well as a group of untreated control animals, consisted of eight to ten animals per group in each experiment. Subcutaneous tumor response was monitored by tumor volume measurement performed twice each week over the course of the experiment (60-120 days). Body weights were taken as a general measure of toxicity. The subcutaneous tumor data were analyzed by determining the median […] for each treatment group over the course of the experiment and calculating the tumor growth delay as the difference in days for the treatment versus the control tumors to reach a volume of either 500 or 1000 mm^3.
The compound of Example 64 was tested in two separate laboratories against a variety of murine and human tumors substantially as described supra. The parameters measured in each experiment are summarized in the following paragraphs. Tumor Weight(mg)=(a×b^2)/2 where a=tumor length (mm) and b=tumor width (mm).
Tumor Growth Delay=T−C where T is the median time (days) required for the treatment group tumors to reach a predetermined size, and C is the median time (days) for the control group tumors to reach the same size.
After palpable tumors were observed drug was administered IV for 5 consecutive days, animals rested for 2 days and compound dosed IV again for 5 consecutive days.
In the case of `O=C([N-]S(=O)(=O)c1ccc(Br)s1)c1ccc(Cl)cc1Cl.[Na+]` [Example 64, N-[2,4-dichlorobenzoyl]-5-bromothiophene-2-sulfonamide sodium salt], the “Tumor Growth Delay” value is reported as 0 ± 2 days.

Same assay, conditions: Experiment A, 60 mg/kg IV, 5 consecutive days, 2 days rest
For `O=C([N-]S(=O)(=O)c1ccc(Br)s1)c1ccc(Cl)cc1Cl.[Na+]` [Example 64, N-[2,4-dichlorobenzoyl]-5-bromothiophene-2-sulfonamide sodium salt], the “Tumor Growth Delay” value was 2 ± 2 days.

Same assay, conditions: Experiment A, 80 mg/kg IV, 5 consecutive days, 2 days rest
For `O=C([N-]S(=O)(=O)c1ccc(Br)s1)c1ccc(Cl)cc1Cl.[Na+]` [Example 64, N-[2,4-dichlorobenzoyl]-5-bromothiophene-2-sulfonamide sodium salt], the “Tumor Growth Delay” value was 2 ± 2 days.

Same assay, conditions: Experiment B, 30 mg/kg IV, 5 consecutive days, 2 days rest
In the case of `O=C([N-]S(=O)(=O)c1ccc(Br)s1)c1ccc(Cl)cc1Cl.[Na+]` [Example 64, N-[2,4-dichlorobenzoyl]-5-bromothiophene-2-sulfonamide sodium salt], the “Tumor Growth Delay” value is reported as 9 ± 4 days.

Same assay, conditions: Experiment B, 60 mg/kg IV, 5 consecutive days, 2 days rest
In the case of `O=C([N-]S(=O)(=O)c1ccc(Br)s1)c1ccc(Cl)cc1Cl.[Na+]` [Example 64, N-[2,4-dichlorobenzoyl]-5-bromothiophene-2-sulfonamide sodium salt], the “Tumor Growth Delay” value is reported as 3 ± 4 days.

Same assay, conditions: Experiment B, 80 mg/kg IV, 5 consecutive days, 2 days rest
`O=C([N-]S(=O)(=O)c1ccc(Br)s1)c1ccc(Cl)cc1Cl.[Na+]` [Example 64, N-[2,4-dichlorobenzoyl]-5-bromothiophene-2-sulfonamide sodium salt] was tested, and the “Tumor Growth Delay” value was 8 ± 3.6 days.

These compounds were tested on Human Colon HCT116 tumor cells (assay: HCT116 Colon Carcinoma Cell Growth Inhibition (WST-1)). Settings: HCT-116, 72 hr exposure.
Format: cell-based
Description: Human HCT 116 colon carcinoma cells were grown monolayer culture in RPMI 1640 medium supplemented with 10% fetal bovine serum and 1% penicillin-streptomycin (GibcoBRL, Grand Island, N.Y.). HCT116 cells in exponential growth phase were exposed to various concentrations of the test compounds at 37° C. for 72 hr in 5% carbon dioxide/air. After exposure to the agent, the cells were washed with 0.9% phosphate buffered saline. Growth inhibition was determined using WST-1 cell proliferation reagent as described above. The results are expressed as the growth fraction of treated cells compared with control cultures. Representative compounds of the present invention were tested for efficacy against the human colon HCT116 tumor cells.
Work on `O=C(NS(=O)(=O)c1ccc(Br)s1)c1ccc(Cl)cc1F` [Example 9, N-[4-chloro-2-fluorobenzoyl]-5-bromothiophene-2-sulfonamide] yielded an IC50 of 21.7 µM.
Compound `Cc1ccc(C(=O)NS(=O)(=O)c2ccc(Cl)s2)c(Br)c1` [Example 31, N-[2-bromo-4-methylbenzoyl]-5-chlorothiophene-2-sulfonamide] has an IC50 of 9.1 µM.
`CCc1ccc(S(=O)(=O)NC(=O)c2ccc(Cl)cc2Cl)s1` [Example 17, N-[2,4-dichlorobenzoyl]-5-(ethyl)thiophene-2-sulfonamide] was tested, and the IC50 was 5 µM.
`COCc1ccc(S(=O)(=O)NC(=O)c2ccc(Cl)cc2Cl)s1` [Example 20, N-[2,4-dichlorobenzoyl]-5-methoxymethyl-thiophene-2-sulfonamide] gave an IC50 of 5.7 µM.
Work on `CCCc1ccc(S(=O)(=O)NC(=O)c2ccc(Cl)cc2Cl)s1` [Example 18, N-[2,4-dichlorobenzoyl]-5-(propyl)thiophene-2-sulfonamide] yielded an IC50 of 13.2 µM.
`Cc1cc(Br)ccc1C(=O)NS(=O)(=O)c1ccc(Br)s1` [Example 57, N-[4-bromo-2-methylbenzoyl]-5-bromothiophene-2-sulfonamide] was tested, and the IC50 was 3.4 µM.
Compound `O=C(NS(=O)(=O)c1ccc(Cl)s1)c1ccc(C(F)(F)F)cc1C(F)(F)F` [Example 4, N-[2,4-bis(trifluoromethyl)-benzoyl]-5-chlorothiophene-2-sulfonamide] has an IC50 of 7.7 µM.
Work on `O=C(NS(=O)(=O)c1ccc(Br)s1)c1ccc([N+](=O)[O-])cc1Cl` [Example 58, N-[2-chloro-4-nitrobenzoyl]-5-bromothiophene-2-sulfonamide] yielded an IC50 of 5.2 µM.
In the case of `Cc1ccc(S(=O)(=O)NC(=O)c2ccc(Cl)cc2Cl)s1` [Example 16, N-[2,4-dichlorobenzoyl]-5-(methyl)thiophene-2-sulfonamide], the IC50 is reported as 3.7 µM.
With `Cc1ccc(C(=O)NS(=O)(=O)c2ccc(Br)s2)c(Cl)c1` [Example 7, N-[2-chloro-4-methylbenzoyl]-5-bromothiophene-2-sulfonamide] the IC50 was 5.2 µM.
With `Cc1cc(Br)ccc1C(=O)NS(=O)(=O)c1ccc(C#N)s1` [Example 29, N-[4-bromo-2-methylbenzoyl]-5-cyanothiophene-2-sulfonamide] the IC50 was 17.3 µM.
With `O=C(NS(=O)(=O)c1ccc(Br)s1)c1ccc(Cl)cc1Cl` [Example 63, N-[2,4-dichlorobenzoyl]-5-bromothiophene-2-sulfonamide] the IC50 was 1.3 µM.
`O=C(NS(=O)(=O)c1ccc(Br)s1)c1ccc(Br)cc1Br` [Example 32, N-[2,4-dibromobenzoyl]-5-bromothiophene-2-sulfonamide] was tested, and the IC50 was 3.9 µM.
`Cc1cc(Cl)ccc1C(=O)NS(=O)(=O)c1ccc(C#N)s1` [Example 28, N-[4-chloro-2-methylbenzoyl]-5-cyanothiophene-2-sulfonamide] was tested, and the IC50 was 8 µM.
Compound `O=C(NS(=O)(=O)c1ccc(Cl)s1)c1ccc(Br)cc1Cl` [Example 1, N-[4-bromo-2-chlorobenzoyl]-5-chlorothiophene-2-sulfonamide] has an IC50 of 5.6 µM.
Compound `Cc1ccc(C(=O)NS(=O)(=O)c2ccc(Cl)s2)c(C)c1` [Example 6, N-[2,4-dimethylbenzoyl]-5-chlorothiophene-2-sulfonamide] has an IC50 of 20.6 µM.
For `O=C(NS(=O)(=O)c1ccc(-c2ccccn2)s1)c1ccc(Cl)cc1Cl` [Example 56, N-[2,4-dichlorobenzoyl]-5-(2-pyridyl)-thiophene-2-sulfonamide], the IC50 was 5.4 µM.
`O=C(NS(=O)(=O)c1ccc(Cl)s1)c1ccc(Cl)cc1Cl` [Example 61, N-[2,4-dichlorobenzoyl]-5-chlorothiophene-2-sulfonamide] showed an IC50 of 1 µM.
In the case of `Cc1cc(Cl)ccc1C(=O)NS(=O)(=O)c1ccc(Br)s1` [Example 2, N-[4-chloro-2-methylbenzoyl]-5-bromothiophene-2-sulfonamide], the IC50 is reported as 6 µM.
With `O=C(NS(=O)(=O)c1ccc(Br)s1)c1ccc(Br)cc1Cl` [Example 54, N-[4-bromo-2-chlorobenzoyl]-5-bromothiophene-2-sulfonamide] the IC50 was 17 µM.
Work on `O=C(NS(=O)(=O)c1cc(Br)c(Cl)s1)c1ccc(Br)cc1Cl` [Example 3, N-[4-bromo-2-chlorobenzoyl]-4-bromo-5-chlorothiophene-2-sulfonamide] yielded an IC50 of 14.7 µM.
Work on `Cc1cc(Cl)ccc1C(=O)NS(=O)(=O)c1ccc(Cl)s1` [Example 30, N-[4-chloro-2-methylbenzoyl]-5-chlorothiophene-2-sulfonamide] yielded an IC50 of 15.8 µM.
Compound `COc1ccc(S(=O)(=O)NC(=O)c2ccc(Cl)cc2Cl)s1` [Example 19, N-[2,4-dichlorobenzoyl]-5-methoxythiophene-2-sulfonamide] has an IC50 of 5.8 µM.
For `O=C(NS(=O)(=O)c1cccs1)c1ccc(Cl)cc1Cl` [Example 55, N-[2,4-dichlorobenzoyl]-thiophene-2-sulfonamide], the IC50 was 4.5 µM.
